Measured values published in ChEMBL document CHEMBL4507315 (2021).

Tests used:
[1] = tested on: Tyrosine-protein kinase ABL1 (Homo sapiens), P00519 [F317L]; details: Compound concentration 100.0 nM
[2] = target: Activin receptor type-2B (Homo sapiens) (UniProt Q13705); details: Compound concentration 100.0 nM
[3] = target: RAC-gamma serine/threonine-protein kinase (Homo sapiens) (UniProt Q9Y243); details: Compound concentration 100.0 nM
[4] = tested on: ALK tyrosine kinase receptor (Homo sapiens), Q9UM73 [L1196M]; details: Compound concentration 100.0 nM
[5] = target: Tyrosine-protein kinase receptor UFO (Homo sapiens) (UniProt P30530); details: Compound concentration 100.0 nM
[6] = target: BMP-2-inducible protein kinase (Homo sapiens) (UniProt Q9NSY1); details: Compound concentration 100.0 nM
[7] = target: Bone morphogenetic protein receptor type-1A (Homo sapiens) (UniProt P36894); details: Compound concentration 100.0 nM
[8] = target: Serine/threonine-protein kinase BRSK2 (Homo sapiens) (UniProt Q8IWQ3); details: Compound concentration 100.0 nM
[9] = target: Cyclin-dependent kinase 5 (Homo sapiens) (UniProt Q00535); details: Compound concentration 100.0 nM
[10] = target: Cyclin-dependent kinase 7 (Homo sapiens) (UniProt P50613); details: Compound concentration 100.0 nM
[11] = target: Casein kinase I isoform delta (Homo sapiens) (UniProt P48730); details: Compound concentration 100.0 nM
[12] = target: Casein kinase II subunit alpha (Homo sapiens) (UniProt P68400); details: Compound concentration 100.0 nM
[13] = target: Serine/threonine-protein kinase DCLK1 (Homo sapiens) (UniProt O15075); details: Compound concentration 100.0 nM
[14] = target: Serine/threonine-protein kinase 17B (Homo sapiens) (UniProt O94768); details: Compound concentration 100.0 nM
[15] = target: Dual specificity tyrosine-phosphorylation-regulated kinase 1B (Homo sapiens) (UniProt Q9Y463); details: Compound concentration 100.0 nM
[16] = tested on: Epidermal growth factor receptor (Homo sapiens), P00533 [UNDEFINED MUTATION]; details: Compound concentration 100.0 nM
[17] = target: Ephrin type-A receptor 4 (Homo sapiens) (UniProt P54764); details: Compound concentration 100.0 nM
[18] = target: Ephrin type-B receptor 6 (Homo sapiens) (UniProt O15197); details: Compound concentration 100.0 nM
[19] = target: Receptor tyrosine-protein kinase erbB-4 (Homo sapiens) (UniProt Q15303); details: Compound concentration 100.0 nM
[20] = target: Mitogen-activated protein kinase 4 (Homo sapiens) (UniProt P31152); details: Compound concentration 100.0 nM
[21] = target: Serine/threonine-protein kinase/endoribonuclease IRE1 (Homo sapiens) (UniProt O75460); details: Compound concentration 100.0 nM
[22] = target: Tyrosine-protein kinase Fer (Homo sapiens) (UniProt P16591); details: Compound concentration 100.0 nM
[23] = tested on: Receptor-type tyrosine-protein kinase FLT3 (Homo sapiens), P36888 [R834Q]; details: Compound concentration 100.0 nM
[24] = target: Cyclin-G-associated kinase (Homo sapiens) (UniProt O14976); details: Compound concentration 100.0 nM
[25] = target: Mitogen-activated protein kinase kinase kinase kinase 1 (Homo sapiens) (UniProt Q92918); details: Compound concentration 100.0 nM
[26] = target: Hormonally up-regulated neu tumor-associated kinase (Homo sapiens) (UniProt P57058); details: Compound concentration 100.0 nM
[27] = target: Tyrosine-protein kinase ITK/TSK (Homo sapiens) (UniProt Q08881); details: Compound concentration 100.0 nM
[28] = target: Tyrosine-protein kinase JAK2 (Homo sapiens) (UniProt O60674); details: Compound concentration 100.0 nM
[29] = tested on: Mast/stem cell growth factor receptor Kit (Homo sapiens), P10721 [A829P]; details: Compound concentration 100.0 nM
[30] = target: Serine/threonine-protein kinase STK11 (Homo sapiens) (UniProt Q15831); details: Compound concentration 100.0 nM
[31] = target: Serine/threonine-protein kinase 10 (Homo sapiens) (UniProt O94804); details: Compound concentration 100.0 nM
[32] = target: Dual specificity mitogen-activated protein kinase kinase 3 (Homo sapiens) (UniProt P46734); details: Compound concentration 100.0 nM
[33] = target: Mitogen-activated protein kinase kinase kinase 10 (Homo sapiens) (UniProt Q02779); details: Compound concentration 100.0 nM
[34] = target: Mitogen-activated protein kinase kinase kinase 11 (Homo sapiens) (UniProt Q16584); details: Compound concentration 100.0 nM
[35] = target: Serine/threonine-protein kinase PAK 1 (Homo sapiens) (UniProt Q13153); details: Compound concentration 100.0 nM
[36] = target: Platelet-derived growth factor receptor beta (Homo sapiens) (UniProt P09619); details: Compound concentration 100.0 nM
[37] = target: cAMP-dependent protein kinase catalytic subunit beta (Homo sapiens) (UniProt P22694); details: Compound concentration 100.0 nM
[38] = target: Protein kinase C iota type (Homo sapiens) (UniProt P41743); details: Compound concentration 100.0 nM
[39] = target: Serine/threonine-protein kinase D2 (Homo sapiens) (UniProt Q9BZL6); details: Compound concentration 100.0 nM
[40] = target: Receptor-interacting serine/threonine-protein kinase 4 (Homo sapiens) (UniProt P57078); details: Compound concentration 100.0 nM
[41] = target: Ribosomal protein S6 kinase alpha-1 (Homo sapiens) (UniProt Q15418); details: Compound concentration 100.0 nM
[42] = target: Serine/threonine-protein kinase Sgk2 (Homo sapiens) (UniProt Q9HBY8); details: Compound concentration 100.0 nM
[43] = target: Serine/threonine-protein kinase SIK1 (Homo sapiens) (UniProt P57059); details: Compound concentration 100.0 nM
[44] = target: 5-hydroxytryptamine receptor 2B (Homo sapiens) (UniProt P41595); details: Compound concentration 10.0 uM
[45] = target: Alpha-1D adrenergic receptor (Homo sapiens) (UniProt P25100); details: Compound concentration 10.0 uM

Receptor-interacting serine/threonine-protein kinase 4 (Homo sapiens), sequence (P57078 whole entry): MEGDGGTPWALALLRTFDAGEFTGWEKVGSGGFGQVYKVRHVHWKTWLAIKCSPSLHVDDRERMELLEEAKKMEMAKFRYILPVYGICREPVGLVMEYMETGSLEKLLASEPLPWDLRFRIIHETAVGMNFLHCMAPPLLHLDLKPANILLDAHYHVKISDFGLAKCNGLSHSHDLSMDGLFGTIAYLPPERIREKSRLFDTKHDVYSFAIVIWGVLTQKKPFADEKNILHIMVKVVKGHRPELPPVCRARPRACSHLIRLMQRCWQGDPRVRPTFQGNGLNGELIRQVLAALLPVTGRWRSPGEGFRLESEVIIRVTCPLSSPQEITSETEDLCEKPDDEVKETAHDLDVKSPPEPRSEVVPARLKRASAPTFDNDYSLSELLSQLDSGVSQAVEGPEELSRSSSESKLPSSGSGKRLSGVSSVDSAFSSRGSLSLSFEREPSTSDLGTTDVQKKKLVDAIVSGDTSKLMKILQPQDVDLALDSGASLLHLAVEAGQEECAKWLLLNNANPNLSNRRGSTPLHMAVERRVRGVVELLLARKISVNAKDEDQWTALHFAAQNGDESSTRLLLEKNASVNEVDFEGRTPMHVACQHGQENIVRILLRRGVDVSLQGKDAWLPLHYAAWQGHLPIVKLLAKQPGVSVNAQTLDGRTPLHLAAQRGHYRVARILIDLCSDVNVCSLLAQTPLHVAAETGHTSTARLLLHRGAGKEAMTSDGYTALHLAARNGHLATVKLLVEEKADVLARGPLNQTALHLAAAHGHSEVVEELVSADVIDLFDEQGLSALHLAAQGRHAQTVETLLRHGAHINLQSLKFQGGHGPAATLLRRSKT
Serine/threonine-protein kinase 10 (Homo sapiens), sequence (O94804 whole entry, looked up): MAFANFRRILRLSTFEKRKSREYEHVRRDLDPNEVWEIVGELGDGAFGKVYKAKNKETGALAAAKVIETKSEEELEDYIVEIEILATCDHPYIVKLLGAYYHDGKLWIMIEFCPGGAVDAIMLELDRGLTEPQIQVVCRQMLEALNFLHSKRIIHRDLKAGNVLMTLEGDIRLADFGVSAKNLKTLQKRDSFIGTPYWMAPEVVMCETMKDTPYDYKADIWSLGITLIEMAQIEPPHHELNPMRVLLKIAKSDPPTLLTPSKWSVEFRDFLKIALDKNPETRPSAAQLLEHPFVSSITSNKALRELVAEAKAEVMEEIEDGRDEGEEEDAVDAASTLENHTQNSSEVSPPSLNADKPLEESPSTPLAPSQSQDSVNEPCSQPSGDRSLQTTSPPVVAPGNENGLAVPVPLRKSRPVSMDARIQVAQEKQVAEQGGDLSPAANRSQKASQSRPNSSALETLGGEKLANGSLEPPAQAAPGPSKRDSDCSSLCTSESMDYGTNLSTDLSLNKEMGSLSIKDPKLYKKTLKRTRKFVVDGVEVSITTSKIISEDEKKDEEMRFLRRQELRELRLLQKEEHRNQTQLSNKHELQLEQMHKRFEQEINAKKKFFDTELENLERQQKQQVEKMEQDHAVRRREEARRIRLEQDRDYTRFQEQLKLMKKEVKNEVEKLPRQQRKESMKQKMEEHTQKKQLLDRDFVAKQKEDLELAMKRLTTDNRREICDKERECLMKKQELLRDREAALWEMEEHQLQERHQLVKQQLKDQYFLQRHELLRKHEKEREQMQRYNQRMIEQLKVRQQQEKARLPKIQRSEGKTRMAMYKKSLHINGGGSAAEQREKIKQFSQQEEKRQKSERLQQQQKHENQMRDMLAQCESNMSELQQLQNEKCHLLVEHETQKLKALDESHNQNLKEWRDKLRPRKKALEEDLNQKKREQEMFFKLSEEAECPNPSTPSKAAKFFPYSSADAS
BMP-2-inducible protein kinase (Homo sapiens), sequence (Q9NSY1 whole entry, looked up): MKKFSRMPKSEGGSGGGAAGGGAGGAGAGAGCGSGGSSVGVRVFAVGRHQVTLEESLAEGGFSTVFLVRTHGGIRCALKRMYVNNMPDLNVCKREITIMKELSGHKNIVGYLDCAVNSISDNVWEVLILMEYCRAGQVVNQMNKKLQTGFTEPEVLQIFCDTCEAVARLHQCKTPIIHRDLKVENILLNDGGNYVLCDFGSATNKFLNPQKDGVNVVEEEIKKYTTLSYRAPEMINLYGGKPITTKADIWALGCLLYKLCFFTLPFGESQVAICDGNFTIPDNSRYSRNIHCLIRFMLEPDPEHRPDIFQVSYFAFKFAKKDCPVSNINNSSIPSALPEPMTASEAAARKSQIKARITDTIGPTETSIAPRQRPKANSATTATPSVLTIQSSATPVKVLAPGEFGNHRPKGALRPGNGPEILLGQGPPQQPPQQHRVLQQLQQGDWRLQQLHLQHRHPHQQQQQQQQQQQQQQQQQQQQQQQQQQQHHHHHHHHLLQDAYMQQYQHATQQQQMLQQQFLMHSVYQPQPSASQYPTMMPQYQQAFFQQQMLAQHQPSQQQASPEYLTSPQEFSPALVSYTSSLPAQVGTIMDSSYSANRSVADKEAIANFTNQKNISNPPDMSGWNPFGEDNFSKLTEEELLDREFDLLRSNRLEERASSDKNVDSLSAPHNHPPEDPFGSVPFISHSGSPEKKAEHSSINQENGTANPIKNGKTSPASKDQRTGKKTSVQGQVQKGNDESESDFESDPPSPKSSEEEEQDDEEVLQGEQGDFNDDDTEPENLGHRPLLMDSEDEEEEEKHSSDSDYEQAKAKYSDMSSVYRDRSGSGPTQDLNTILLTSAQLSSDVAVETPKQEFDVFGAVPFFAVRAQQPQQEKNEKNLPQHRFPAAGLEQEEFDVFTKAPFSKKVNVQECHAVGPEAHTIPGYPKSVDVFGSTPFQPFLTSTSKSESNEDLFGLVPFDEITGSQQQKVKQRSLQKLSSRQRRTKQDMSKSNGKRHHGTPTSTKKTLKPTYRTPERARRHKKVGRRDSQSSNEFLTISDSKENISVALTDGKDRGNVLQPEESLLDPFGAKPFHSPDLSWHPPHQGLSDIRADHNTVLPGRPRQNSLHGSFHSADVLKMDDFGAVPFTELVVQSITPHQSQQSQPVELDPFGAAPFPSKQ
Mitogen-activated protein kinase kinase kinase 11 (Homo sapiens), sequence (Q16584 whole entry, looked up): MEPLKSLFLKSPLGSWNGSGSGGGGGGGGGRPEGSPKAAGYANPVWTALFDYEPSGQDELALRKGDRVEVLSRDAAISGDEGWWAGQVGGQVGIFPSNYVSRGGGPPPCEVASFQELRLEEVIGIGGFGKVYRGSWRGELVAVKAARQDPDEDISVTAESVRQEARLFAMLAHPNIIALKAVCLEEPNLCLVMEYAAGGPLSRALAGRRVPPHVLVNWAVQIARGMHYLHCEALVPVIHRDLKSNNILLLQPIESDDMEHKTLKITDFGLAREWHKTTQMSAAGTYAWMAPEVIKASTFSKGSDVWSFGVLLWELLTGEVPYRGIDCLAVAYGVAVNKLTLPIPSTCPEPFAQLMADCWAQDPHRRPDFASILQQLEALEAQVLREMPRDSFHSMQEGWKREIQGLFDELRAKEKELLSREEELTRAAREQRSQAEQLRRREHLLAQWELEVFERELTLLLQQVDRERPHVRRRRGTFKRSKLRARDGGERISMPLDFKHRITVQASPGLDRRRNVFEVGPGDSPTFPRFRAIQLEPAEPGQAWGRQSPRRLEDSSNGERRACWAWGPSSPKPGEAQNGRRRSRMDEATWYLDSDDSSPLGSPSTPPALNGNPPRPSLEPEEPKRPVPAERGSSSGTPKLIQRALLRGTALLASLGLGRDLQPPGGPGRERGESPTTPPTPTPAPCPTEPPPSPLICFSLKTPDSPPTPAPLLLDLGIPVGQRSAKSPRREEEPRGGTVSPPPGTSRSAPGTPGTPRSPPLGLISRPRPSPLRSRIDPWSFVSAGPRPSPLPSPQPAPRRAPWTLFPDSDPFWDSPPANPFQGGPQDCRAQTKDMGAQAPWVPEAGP
Tyrosine-protein kinase JAK2 (Homo sapiens), sequence (O60674 whole entry): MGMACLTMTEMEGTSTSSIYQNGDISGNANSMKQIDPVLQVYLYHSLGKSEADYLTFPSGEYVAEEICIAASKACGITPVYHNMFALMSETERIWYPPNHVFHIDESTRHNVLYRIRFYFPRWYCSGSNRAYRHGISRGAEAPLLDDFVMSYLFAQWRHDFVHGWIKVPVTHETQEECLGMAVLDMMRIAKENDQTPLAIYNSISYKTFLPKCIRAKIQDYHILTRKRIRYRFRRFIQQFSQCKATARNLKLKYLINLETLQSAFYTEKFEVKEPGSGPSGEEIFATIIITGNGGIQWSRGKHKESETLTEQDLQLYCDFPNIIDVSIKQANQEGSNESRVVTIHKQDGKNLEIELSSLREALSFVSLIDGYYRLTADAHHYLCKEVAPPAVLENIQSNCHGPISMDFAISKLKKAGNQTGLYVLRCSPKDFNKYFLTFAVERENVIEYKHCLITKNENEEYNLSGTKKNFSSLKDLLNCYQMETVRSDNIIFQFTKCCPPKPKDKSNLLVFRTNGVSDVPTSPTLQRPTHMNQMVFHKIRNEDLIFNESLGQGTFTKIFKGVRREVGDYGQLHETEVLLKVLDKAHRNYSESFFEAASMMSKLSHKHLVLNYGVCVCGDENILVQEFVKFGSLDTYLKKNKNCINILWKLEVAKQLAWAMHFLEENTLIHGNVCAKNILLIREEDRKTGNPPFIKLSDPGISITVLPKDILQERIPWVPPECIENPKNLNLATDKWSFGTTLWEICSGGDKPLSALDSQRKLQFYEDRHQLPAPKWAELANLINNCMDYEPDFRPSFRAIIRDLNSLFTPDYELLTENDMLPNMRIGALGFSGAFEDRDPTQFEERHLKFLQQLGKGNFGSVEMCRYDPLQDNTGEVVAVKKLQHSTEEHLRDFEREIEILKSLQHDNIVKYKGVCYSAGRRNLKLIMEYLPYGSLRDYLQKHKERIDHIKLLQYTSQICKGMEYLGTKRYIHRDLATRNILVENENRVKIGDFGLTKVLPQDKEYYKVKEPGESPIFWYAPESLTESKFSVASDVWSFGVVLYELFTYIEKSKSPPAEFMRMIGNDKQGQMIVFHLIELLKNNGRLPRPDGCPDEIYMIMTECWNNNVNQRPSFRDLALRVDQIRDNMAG

Nc1c(C(=O)NCc2ccc(C(=O)NCCCC3CCCCC3)cc2)cnn1-c1ccccc1 [SR-318]
inactive: residual activity [1] 100% | residual activity [2] 100% | residual activity [3] 78% | residual activity [4] 100% | residual activity [5] 87% | residual activity [6] 100% | residual activity [7] 100% | residual activity [8] 79% | residual activity [9] 100% | residual activity [10] 100% | residual activity [11] 100% | residual activity [12] 70% | residual activity [13] 100% | residual activity [14] 94% | residual activity [15] 100% | residual activity [16] 100% | residual activity [17] 100% | residual activity [18] 100% | residual activity [19] 89% | residual activity [20] 100% | residual activity [21] 100% | residual activity [22] 90% | residual activity [23] 100% | residual activity [24] 100% | residual activity [25] 99% | residual activity [26] 100% | residual activity [27] 93% | residual activity [28] 100% | residual activity [29] 100% | residual activity [30] 100% | residual activity [31] 100% | residual activity [32] 85% | residual activity [33] 85% | residual activity [34] 76% | residual activity [35] 100% | residual activity [36] 100% | residual activity [37] 82% | residual activity [38] 97% | residual activity [39] 100% | residual activity [40] 100% | residual activity [41] 100% | residual activity [42] 72% | residual activity [43] 100% | inhibition [44] 19.9% | inhibition [45] 22%

O=C(NCCCC1CCCCC1)c1ccc(CNC(=O)c2cnn(-c3ccccc3)c2C(F)(F)F)cc1 [SR-321]
inactive: residual activity [1] 82% | residual activity [2] 96% | residual activity [3] 97% | residual activity [4] 100% | residual activity [5] 95% | residual activity [6] 100% | residual activity [7] 100% | residual activity [8] 100% | residual activity [9] 88% | residual activity [10] 100% | residual activity [11] 100% | residual activity [12] 94% | residual activity [13] 100% | residual activity [14] 100% | residual activity [15] 100% | residual activity [16] 99% | residual activity [17] 70% | residual activity [18] 100% | residual activity [19] 100% | residual activity [20] 100% | residual activity [21] 94% | residual activity [22] 98% | residual activity [23] 100% | residual activity [24] 100% | residual activity [25] 100% | residual activity [26] 100% | residual activity [27] 100% | residual activity [28] 100% | residual activity [29] 100% | residual activity [30] 100% | residual activity [31] 100% | residual activity [32] 100% | residual activity [33] 87% | residual activity [34] 100% | residual activity [35] 92% | residual activity [36] 100% | residual activity [37] 100% | residual activity [38] 100% | residual activity [39] 100% | residual activity [40] 58% | residual activity [41] 100% | residual activity [42] 95% | residual activity [43] 91% | inhibition [44] 3.69% | inhibition [45] 10.1%
